Data from publication PMC12064818, “A general assay platform to study protein pharmacology using ligand-dependent structural dynamics” (Nature Communications, 2025).
“And” between values parts separate entries of the source, which are not always exact repeats. Identical values can stand only once.

Columns and labels:
[1] = target: FLuc-C-NLuc (firefly luciferase) (Photinus pyralis, UniProt P08659, form not given/L550V); assay: Firefly luciferase (FLuc) enzymatic luminescence assay, FLuc-C-NLuc; type: biochemical; parameters: key to Enz: % normalized; no enzyme control = 100% inhibition, DMSO = 0; conditions: for Enz: Log[Compound]
Sequence of FLuc-C-NLuc (firefly luciferase) (P08659 2-550 L550V, form open): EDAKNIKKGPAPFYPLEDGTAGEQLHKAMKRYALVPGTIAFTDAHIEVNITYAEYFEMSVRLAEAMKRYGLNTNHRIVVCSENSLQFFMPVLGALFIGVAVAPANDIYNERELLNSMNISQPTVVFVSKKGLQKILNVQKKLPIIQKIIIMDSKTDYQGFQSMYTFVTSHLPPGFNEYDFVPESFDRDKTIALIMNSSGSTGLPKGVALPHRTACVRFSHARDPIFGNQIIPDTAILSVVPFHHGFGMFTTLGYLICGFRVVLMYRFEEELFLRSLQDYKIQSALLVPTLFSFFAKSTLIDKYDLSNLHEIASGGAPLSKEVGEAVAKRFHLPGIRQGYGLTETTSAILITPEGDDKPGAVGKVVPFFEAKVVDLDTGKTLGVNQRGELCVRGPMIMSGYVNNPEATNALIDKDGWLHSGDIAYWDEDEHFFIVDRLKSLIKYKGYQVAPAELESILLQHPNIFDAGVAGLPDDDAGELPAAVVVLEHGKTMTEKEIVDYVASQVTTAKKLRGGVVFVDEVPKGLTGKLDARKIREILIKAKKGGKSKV
Experimental: The enzyme activity of FLuc-N-HiBiT, FLuc-C-HiBiT, and FLuc-C-NLuc was measured similar to P. pyralis firefly luciferase (FLuc) as previously described. […] Compounds and controls were added to each plate as described in Supplementary Data 8 with a Hornet pintool system (Wako Automation). Compounds were incubated with respective enzymes for 30–60 min at room temperature protected from light and covered by solid metal lid to prevent evaporation. […] Luciferin was incubated with FLuc enzyme for 5 min before FLuc activity was then measured on a ViewLux CCD imager (PerkinElmer), with exposure times up to ten seconds with medium to high gain settings. Data were normalized to average no enzyme control as 100% enzyme inhibition and average DMSO neutral control. See Supplementary Table 4 for additional details.
Supplementary Table 4. Protocol for Firefly luciferase (FLuc) and NanoLuc (NLuc) enzymatic
Supplementary Table 4: Protocol for Firefly luciferase (FLuc) and NanoLuc (NLuc) enzym atic lum inescence assay
Firefly luciferase (FLuc) enzym atic lum inescence assay
Sequence Param eter Value Description
No enzym e control (colum n 1) and enzym e solution (1- 10 nM FLuc enzym e) in FLuc assay
1 Reagent 4 µLbuffer; white/solid bottom , m edium bind, high base plates (Greiner), dispensed with BioRaptr
com pounds transferred to respective colum ns with Pintool
2b Test Com pounds 23 nLconcentration range) in colum ns 5- 48; com pounds transferred to respective wells with
3 Incubation 30 m in Incubate enzym e + com pounds at am bient tem p for 30 m in, protected from light
4 Reagent 3 µLAdd 3 µL of D-luciferin substrate solution to each well (final concentration 10 µM); dispensed
5 Detector ViewLux Read plate lum inescence (Exposure = 1- 10 sec; Gain = Medium -high; Speed = Slow;
Dispensing solution was diluted in 1X PBS, pH 7.4. […]

[2] = target: firefly luciferase (FLuc) (Photinus pyralis, UniProt P08659); assay: Thermal shift profiles (Thermofluor assay), FLuc; type: binding; parameters: unit of the concentration uncertain; conditions: 52.782 °C; compound 100 (unit uncertain);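 note: normalized first derivative of fluorescence (dF/dT) at the stated temperature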
Sequence of firefly luciferase (FLuc) (P08659 whole entry): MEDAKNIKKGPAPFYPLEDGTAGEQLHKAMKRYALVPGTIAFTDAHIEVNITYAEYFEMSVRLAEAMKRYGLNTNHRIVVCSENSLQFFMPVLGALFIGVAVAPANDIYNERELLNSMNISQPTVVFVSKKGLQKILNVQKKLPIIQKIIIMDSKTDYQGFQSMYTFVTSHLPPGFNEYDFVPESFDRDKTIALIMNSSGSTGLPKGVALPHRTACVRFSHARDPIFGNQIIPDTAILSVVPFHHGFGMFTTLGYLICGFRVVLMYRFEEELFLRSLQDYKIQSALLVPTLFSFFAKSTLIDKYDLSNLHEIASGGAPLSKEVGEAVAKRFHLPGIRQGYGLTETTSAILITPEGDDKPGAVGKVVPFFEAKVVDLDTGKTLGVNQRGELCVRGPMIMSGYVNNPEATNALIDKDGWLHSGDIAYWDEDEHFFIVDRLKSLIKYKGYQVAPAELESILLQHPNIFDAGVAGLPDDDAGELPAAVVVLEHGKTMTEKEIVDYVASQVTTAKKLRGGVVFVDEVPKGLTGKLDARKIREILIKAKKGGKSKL
Experimental: Thermal stabilization of proteins in the presence of the ligands were determined using Thermofluor technique. MicroAmp optical 384-well plates (Applied Biosystems by Life Technologies), ViiA 7 real-time PCR instrument (Applied Biosystems by Life Technologies) and SYPRO Orange (Life Technologies) were used to test the samples. The final concentration of the protein, compounds and dye were maintained at 5 µM, 100 µM and 10x respectively in a 20 µL reaction volume. […] Proteins were added to the 384-well plate first followed by the compounds. Samples were incubated for 10 mins at room temperature and protected from light. […] The plate was sealed with a MicroAmp optical adhesive film, centrifuged at 1500 RPM for 2 min, and then loaded onto the ViiA 7 real–time PCR instrument for fluorescence intensity measurements upon heating the sample from 25 to 95 °C at 1 °C/min increments. Data was exported to excel, fluorescence intensity data and its first derivative were normalized and plotted using GraphPad Prism to determine Tm. […]
6 Read ViiA7 Read the therm al unfolding of the protein with ViiA7 real-tim e PCR system
4 Prepare 50X dye in PBS: 1 μL Sypro Orange 5000X (Life Technologies), 99 μL ddH2O. Add 4 μL to each well Read the m elting tem perature from 25 to 95 °C using ViiA 7 real tim e PCR instrum ent by following the below instructions Perform therm al denaturation in 384-well assay plate […]

[3] = FLuc-C-NLuc (1 nM) + 10 mM ATP, 32.8 µM ligand

CC(CNC(=O)C1CCN(C(=O)c2ncn3c2COC(c2ccccc2)C3)CC1)c1ccccc1 (centres unmarked) [compound 00449795]
Enz ([1]; M -4.48): -89.10
Enz ([1]; M -4.96): -73.93
Enz ([1]; M -5.44): -56.58
Enz ([1]; M -5.91): -29.78
Enz ([1]; M -6.39): -11.92
Enz ([1]; M -6.87): -0.00581
Enz ([1]; M -7.35): 4.23
Enz ([1]; M -7.82): 7.74
Enz ([1]; M -8.30): 6.20
Enz ([1]; M -8.78): 3.71
Enz ([1]; M -9.25): 4.09

COc1ccc(NC(=O)C2CCN(C(=O)c3ncn4c3COC(c3ccccc3)C4)CC2)cc1Cl (centres unmarked) [NCGC 00449919]
Thermofluor FLuc, No ATP [2]: 0.994

O=C(O)c1cccc(-c2noc(-c3ccccc3F)n2)c1 [PTC124, reference compound]
Functional Enzymatic Assay ([1]; 1 nM FLuc-C-NLuc, Log [PTC124], M -6.87, replicates): 5.5 RLU and 5.8 RLU and 4.9 RLU and 5.4 RLU
pIC50, FLuc-C-NLuc (1 nM) ([1]; 10 μM ATP): 9.85 ± 0.03
Standard assay statistics Ave RLU [1, 3]: 18.2 RLU
Standard assay statistics S:B [1, 3]: 48.3
Standard assay statistics S:N [1, 3]: 14.7
Standard assay statistics Z’ [1, 3]: 0.775
1 nM FLuc-C-NLuc Enz, Mean ([1]; Log [PTC124], M -4.48): 0.85 RLU
1 nM FLuc-C-NLuc Enz, Mean ([1]; Log [PTC124], M -4.96): 0.8 RLU
1 nM FLuc-C-NLuc Enz, Mean ([1]; Log [PTC124], M -5.44): 1.3 RLU
1 nM FLuc-C-NLuc Enz, Mean ([1]; Log [PTC124], M -5.91): 1.6 RLU
1 nM FLuc-C-NLuc Enz, Mean ([1]; Log [PTC124], M -6.39): 2.8 RLU
1 nM FLuc-C-NLuc Enz, Mean ([1]; Log [PTC124], M -6.87): 5.9 RLU
1 nM FLuc-C-NLuc Enz, Mean ([1]; Log [PTC124], M -7.35): 11.8 RLU
1 nM FLuc-C-NLuc Enz, Mean ([1]; Log [PTC124], M -7.82): 27.4 RLU
1 nM FLuc-C-NLuc Enz, Mean ([1]; Log [PTC124], M -8.30): 69.9 RLU
1 nM FLuc-C-NLuc Enz, Mean ([1]; Log [PTC124], M -8.78): 146.5 RLU
1 nM FLuc-C-NLuc Enz, Mean ([1]; Log [PTC124], M -9.25): 188.2 RLU
1 nM FLuc-C-NLuc Enz, Mean ([1]; Log [PTC124], M -9.73): 384.3 RLU
1 nM FLuc-C-NLuc Enz, Mean ([1]; Log [PTC124], M -10.21): 641.6 RLU
1 nM FLuc-C-NLuc Enz, Mean ([1]; Log [PTC124], M -10.69): 817.0 RLU
1 nM FLuc-C-NLuc Enz, Mean ([1]; Log [PTC124], M -11.16): 872.5 RLU
1 nM FLuc-C-NLuc Enz, Mean ([1]; Log [PTC124], M -11.64): 882.4 RLU

CC(CNC(=O)C1CCN(C(=O)c2ncn3c2COC(c2ccccc2)C3)CC1)c1ccccc1 (centres unmarked) [NCGC 00449795]
Thermofluor FLuc, No ATP [2]: 0.992
